Source: patent US7897640B2 (priority 2003, dated 2011)
Marks after values point to notes of the source that are not given here.

Tests used:
[1] = solubility; type: physicochemical
[2] = test system: human T lymphocytes MT-4; experiment: cytotoxicity by MTT in MT-4 culture; settings: MT-4 culture with HIV-1 IIIB, 96 hours
[3] = test system: HIV-1 IIIB; experiment: HIV-1 P24 antigen inhibition in MT-4 culture; settings: MT-4, HIV-1 IIIB
Method: MT-4 cell suspension was counted, then 100 μl of suspension (2×10^5 cells/ml) was seeded into 96-well cell culture plate, 50 μl liquor of 2× diluted medicament or 4-5× diluted positive medicament AZT (8 concentrations) was added, respectively, and 50 μl virus suspension with proper titer was add concurrently. Each dilution was repeated in 3 wells and cell control group and virus control group were established. They were incubated at 37° C., 5% CO2 saturated humidity incubator and the cytopathy was observed everyday. On the fourth day after administration (96 hours), the supernatants were sucked out and stored at −20° C. for measuring HIV-1-P24 antigen titer. Accordingly, the inhibition effect of medicament could be calculated, and the cells were dyed with MTT to measure the cytotoxicity.
The medicated cell supernatants infected with MT-4 were diluted after being thawed. HIV-1 P24 titer was measured according to the operation procedure described in HIV-1 P24 antigen kit.
[formula] 2.2.2 Reed & Muench Method for Calculating CC50 and EC50 of Medicament in Cell Culture
[formula] 2.2.3. Calculation Method of Selection Index (SI) of HIV-1 P24 Antigen in Cell Culture SI=CC50/EC50 3.

[4] = test system: HIV-1 IIIB; experiment: HIV-1 P24 antigen inhibition in chronically infected H9 cells
Method: HIV-1 P24 antigen titer was measured according to the operation procedures stated in HIV-1 P24 antigen kit.
100 μl (2×10^5 cells/ml) of H9 cells suspension was seeded into 96-well cell culture plate. Then, 100 μl liquor of 2× diluted medicament or 4-5× diluted positive AZT (8 concentrations) was added. Each dilution was repeated in three wells. The cell control group was established. The cells were incubated in the incubator (37° C., 5% CO2, saturated humidity) and the cytopathy was observed everyday. Four days (96 hours) after administration, the supernatants were sucked out and stored at −20° C. to measure HIV-1-P24 antigen titer. The inhibition effect of the medicament was determined. The cells were dyed with MTT to measure the cytotoxicity.
2.2.2 Reed & Muench Method for Calculating CC50 and EC50 of Medicament in Cell Culture
Calculation Method of Selection Index (SI) of HIV-1 P24 Antigen in Cell Culture SI=CC50/EC50 3.

[5] = test system: AZT-sensitive strain HIV-1 018a; experiment: HIV-1 P24 antigen inhibition in PBMC, AZT-sensitive strain; settings: PBMC, AZT-sensitive HIV-1 018a
[6] = test system: AZT-resistant strain HIV-1 018c; settings: PBMC, AZT-resistant HIV-1 018c
[7] = test system: duck hepatitis B virus (DHBV); experiment: pharmacotherapy test in DHBV infected ducklings, serum DHBV-DNA dot-blot; type: in vivo, Beijing ducklings
[8] = test system: human T lymphocytes H9 chronically infected with HIV-1 IIIB; experiment: cytotoxicity by MTT in H9 cells chronically infected with HIV-1 IIIB; settings: H9 cell chronically infected with HIV-1 IIIB, 96 hours
[9] = test system: human peripheral blood mononuclear cell (PBMC); experiment: cytotoxicity by MTT in HIV-infected PBMC culture; settings: 96 hours
Method: 10 μl MTT dye (5 mg/ml) was added to each well, and then incubated at 37° C., 5% CO2 saturated humidity incubator for 4 hours. 100 μl 50% DMF-17% Triton X-100 destainer was added to each well and the mixtures were kept at 37° C. overnight. Then OD570nm values were measured at 570 nm with a luminometer to calculate the median cytotoxicity concentration of medicament (CC50).
The fresh normal human venous blood was taken and PBMC was separated using FiColl separation solution. The 1.5×10^5 cells/ml suspension prepared with the culture fluid containing PHA was seeded into the culture bottle and incubated in the incubator (37° C., 5% CO2) for 72 hours. The cells were collected with cell scrapers then were infected with the 10^−2 viral liquid of AZT-sensitive (018a) or AZT-resistant (018c) viral strain. After absorption for 2 hours, the non-absorbed viruses were washed with serum-free 1640 culture medium. The infected cells were prepared into 1×10^6 cells/ml with the culture fluid, and then were seeded into the 96-well culture board in 100 μl/well. At the same time, 100 μl liquor of 2× diluted AKJ-2 or 5× diluted positive control medicament AZT with different concentrations was added. The cell control group and virus control group were established. Four days (96 hours) after incubating under 37° C., 5% CO2, the supernatants were sucked out and stored at −20° C. to measure HIV-1-P24 antigen titer and calculate the inhibition effect of the medicament. The cells were dyed with MTT to measure the cytotoxicity.

## CC(C)=CC[C@H](OC(=O)C=C(C)C)C1=CC(=O)c2c(O)ccc(O)c2C1=O [AKJ, β,β-dimethyl-acryl-alkannin]
[1]; DMSO
  solubility in DMSO: soluble
[1]; water
  solubility in water: insoluble
[2]
  Median cytotoxicity concentration (CC50): 0.31 ± 0.04 µg/mL
[3]
  Selection index (CC50/EC50): 4.49 ± 0.94
[3]; 96 hours
  Median effective concentration (EC50), HIV-1 P24 antigen: 0.07 ± 0.01 µg/mL
[4]; H9 cell chronically infected with HIV-1 IIIB, 96 hours
  Median effective concentration (EC50), HIV-1 P24 antigen: >0.25 ± 0 µg/mL
[4]; two lots of tests
  inhibition effect on HIV-1 IIIB chronically-infected H9 cells: no inhibition effect
[5]
  Selection index (CC50/EC50): 5.12 ± 0.33
[5]; 96 hours
  Median effective concentration (EC50), HIV-1 P24 antigen: 1.11 ± 0.11 µg/mL
[6]
  Selection index (CC50/EC50): 5.75 ± 0.67
[6]; 96 hours
  Median effective concentration (EC50), HIV-1 P24 antigen: 0.97 ± 0.13 µg/mL
[7]; Lot I, 25 mg/kg oral bid x 10 days, P3 (third day after cessation)
  Serum DHBV-DNA OD490 value (X ± SD): 0.792 ± 0.13
[7]; Lot I, 25 mg/kg oral bid x 10 days, P3 vs T0
  Serum DHBV-DNA level Inhibitory Rate (%): 5.43%
[7]; Lot I, 25 mg/kg oral bid x 10 days, T0 (day before administration)
  Serum DHBV-DNA OD490 value (X ± SD): 0.851 ± 0.15
[7]; Lot I, 25 mg/kg oral bid x 10 days, T5
  Serum DHBV-DNA OD490 value (X ± SD): 0.767 ± 0.18
[7]; Lot I, 25 mg/kg oral bid x 10 days, T5 vs T0
  Serum DHBV-DNA level Inhibitory Rate (%): 8.81%
[7]; Lot I, 25 mg/kg oral bid x 10 days, T10
  Serum DHBV-DNA OD490 value (X ± SD): 0.762 ± 0.15
[7]; Lot I, 25 mg/kg oral bid x 10 days, T10 vs T0
  Serum DHBV-DNA level Inhibitory Rate (%): 8.73%
[7]; Lot I, 50 mg/kg oral bid x 10 days, P3 (third day after cessation)
  Serum DHBV-DNA OD490 value (X ± SD): 0.696 ± 0.05
[7]; Lot I, 50 mg/kg oral bid x 10 days, P3 vs T0
  Serum DHBV-DNA level Inhibitory Rate (%): 32.39** %
[7]; Lot I, 50 mg/kg oral bid x 10 days, T0 (day before administration)
  Serum DHBV-DNA OD490 value (X ± SD): 1.082 ± 0.23
[7]; Lot I, 50 mg/kg oral bid x 10 days, T5
  Serum DHBV-DNA OD490 value (X ± SD): 0.961 ± 0.23
[7]; Lot I, 50 mg/kg oral bid x 10 days, T5 vs T0
  Serum DHBV-DNA level Inhibitory Rate (%): 9.16%
[7]; Lot I, 50 mg/kg oral bid x 10 days, T10
  Serum DHBV-DNA OD490 value (X ± SD): 0.680 ± 0.09
[7]; Lot I, 50 mg/kg oral bid x 10 days, T10 vs T0
  Serum DHBV-DNA level Inhibitory Rate (%): 33.56** %
[7]; Lot I, 100 mg/kg oral bid x 10 days, P3 (third day after cessation)
  Serum DHBV-DNA OD490 value (X ± SD): 0.667 ± 0.22
[7]; Lot I, 100 mg/kg oral bid x 10 days, P3 vs T0
  Serum DHBV-DNA level Inhibitory Rate (%): 44.91** %
[7]; Lot I, 100 mg/kg oral bid x 10 days, T0 (day before administration)
  Serum DHBV-DNA OD490 value (X ± SD): 1.207 ± 0.23
[7]; Lot I, 100 mg/kg oral bid x 10 days, T5
  Serum DHBV-DNA OD490 value (X ± SD): 0.987 ± 0.26
[7]; Lot I, 100 mg/kg oral bid x 10 days, T5 vs T0
  Serum DHBV-DNA level Inhibitory Rate (%): 17.86* %
[7]; Lot I, 100 mg/kg oral bid x 10 days, T10
  Serum DHBV-DNA OD490 value (X ± SD): 0.757 ± 0.19
[7]; Lot I, 100 mg/kg oral bid x 10 days, T10 vs T0
  Serum DHBV-DNA level Inhibitory Rate (%): 37.09** %
[7]; Lot II, 25 mg/kg oral bid x 10 days, P3 (third day after cessation)
  Serum DHBV-DNA OD490 value (X ± SD): 1.092 ± 0.13
[7]; Lot II, 25 mg/kg oral bid x 10 days, P3 vs T0
  Serum DHBV-DNA level Inhibitory Rate (%): −12.91%
[7]; Lot II, 25 mg/kg oral bid x 10 days, T0 (day before administration)
  Serum DHBV-DNA OD490 value (X ± SD): 1.005 ± 0.22
[7]; Lot II, 25 mg/kg oral bid x 10 days, T5
  Serum DHBV-DNA OD490 value (X ± SD): 1.061 ± 0.08
[7]; Lot II, 25 mg/kg oral bid x 10 days, T5 vs T0
  Serum DHBV-DNA level Inhibitory Rate (%): −8.66%
[7]; Lot II, 25 mg/kg oral bid x 10 days, T10
  Serum DHBV-DNA OD490 value (X ± SD): 0.928 ± 0.09
[7]; Lot II, 25 mg/kg oral bid x 10 days, T10 vs T0
  Serum DHBV-DNA level Inhibitory Rate (%): 5.67%
[7]; Lot II, 50 mg/kg oral bid x 10 days, P3 (third day after cessation)
  Serum DHBV-DNA OD490 value (X ± SD): 1.140 ± 0.25
[7]; Lot II, 50 mg/kg oral bid x 10 days, P3 vs T0
  Serum DHBV-DNA level Inhibitory Rate (%): 14.99%
[7]; Lot II, 50 mg/kg oral bid x 10 days, T0 (day before administration)
  Serum DHBV-DNA OD490 value (X ± SD): 1.375 ± 0.28
[7]; Lot II, 50 mg/kg oral bid x 10 days, T5
  Serum DHBV-DNA OD490 value (X ± SD): 1.075 ± 0.14
[7]; Lot II, 50 mg/kg oral bid x 10 days, T5 vs T0
  Serum DHBV-DNA level Inhibitory Rate (%): 20.22** %
[7]; Lot II, 50 mg/kg oral bid x 10 days, T10
  Serum DHBV-DNA OD490 value (X ± SD): 0.947 ± 0.13
[7]; Lot II, 50 mg/kg oral bid x 10 days, T10 vs T0
  Serum DHBV-DNA level Inhibitory Rate (%): 27.55* %
[7]; Lot II, 100 mg/kg oral bid x 10 days, P3 (third day after cessation)
  Serum DHBV-DNA OD490 value (X ± SD): 0.875 ± 0.17
[7]; Lot II, 100 mg/kg oral bid x 10 days, P3 vs T0
  Serum DHBV-DNA level Inhibitory Rate (%): 18.04* %
[7]; Lot II, 100 mg/kg oral bid x 10 days, T0 (day before administration)
  Serum DHBV-DNA OD490 value (X ± SD): 1.080 ± 0.21
[7]; Lot II, 100 mg/kg oral bid x 10 days, T5
  Serum DHBV-DNA OD490 value (X ± SD): 0.872 ± 0.13
[7]; Lot II, 100 mg/kg oral bid x 10 days, T5 vs T0
  Serum DHBV-DNA level Inhibitory Rate (%): 18.14** %
[7]; Lot II, 100 mg/kg oral bid x 10 days, T10
  Serum DHBV-DNA OD490 value (X ± SD): 0.670 ± 0.14
[7]; Lot II, 100 mg/kg oral bid x 10 days, T10 vs T0
  Serum DHBV-DNA level Inhibitory Rate (%): 36.65** %
[7]; Lot III, 25 mg/kg oral bid x 10 days, P3 (third day after cessation)
  Serum DHBV-DNA OD490 value (X ± SD): 1.035 ± 0.21
[7]; Lot III, 25 mg/kg oral bid x 10 days, P3 vs T0
  Serum DHBV-DNA level Inhibitory Rate (%): 16.14* %
[7]; Lot III, 25 mg/kg oral bid x 10 days, T0 (day before administration)
  Serum DHBV-DNA OD490 value (X ± SD): 1.263 ± 0.35
[7]; Lot III, 25 mg/kg oral bid x 10 days, T5
  Serum DHBV-DNA OD490 value (X ± SD): 1.079 ± 0.23
[7]; Lot III, 25 mg/kg oral bid x 10 days, T5 vs T0
  Serum DHBV-DNA level Inhibitory Rate (%): 11.66* %
[7]; Lot III, 25 mg/kg oral bid x 10 days, T10
  Serum DHBV-DNA OD490 value (X ± SD): 1.076 ± 0.16
[7]; Lot III, 25 mg/kg oral bid x 10 days, T10 vs T0
  Serum DHBV-DNA level Inhibitory Rate (%): 11.96* %
[7]; Lot III, 50 mg/kg oral bid x 10 days, P3 (third day after cessation)
  Serum DHBV-DNA OD490 value (X ± SD): 1.368 ± 0.11
[7]; Lot III, 50 mg/kg oral bid x 10 days, P3 vs T0
  Serum DHBV-DNA level Inhibitory Rate (%): 16.59** %
[7]; Lot III, 50 mg/kg oral bid x 10 days, T0 (day before administration)
  Serum DHBV-DNA OD490 value (X ± SD): 1.649 ± 0.13
[7]; Lot III, 50 mg/kg oral bid x 10 days, T5
  Serum DHBV-DNA OD490 value (X ± SD): 1.459 ± 0.28
[7]; Lot III, 50 mg/kg oral bid x 10 days, T5 vs T0
  Serum DHBV-DNA level Inhibitory Rate (%): 11.03* %
[7]; Lot III, 50 mg/kg oral bid x 10 days, T10
  Serum DHBV-DNA OD490 value (X ± SD): 1.411 ± 0.31
[7]; Lot III, 50 mg/kg oral bid x 10 days, T10 vs T0
  Serum DHBV-DNA level Inhibitory Rate (%): 13.00%
[7]; Lot III, 100 mg/kg oral bid x 10 days, P3 (third day after cessation)
  Serum DHBV-DNA OD490 value (X ± SD): 1.146 ± 0.56
[7]; Lot III, 100 mg/kg oral bid x 10 days, P3 vs T0
  Serum DHBV-DNA level Inhibitory Rate (%): 18.34%
[7]; Lot III, 100 mg/kg oral bid x 10 days, T0 (day before administration)
  Serum DHBV-DNA OD490 value (X ± SD): 1.474 ± 0.38
[7]; Lot III, 100 mg/kg oral bid x 10 days, T5
  Serum DHBV-DNA OD490 value (X ± SD): 1.351 ± 0.30
[7]; Lot III, 100 mg/kg oral bid x 10 days, T5 vs T0
  Serum DHBV-DNA level Inhibitory Rate (%): 2.76%
[7]; Lot III, 100 mg/kg oral bid x 10 days, T10
  Serum DHBV-DNA OD490 value (X ± SD): 1.046 ± 0.42
[7]; Lot III, 100 mg/kg oral bid x 10 days, T10 vs T0
  Serum DHBV-DNA level Inhibitory Rate (%): 28.41** %
[8]
  Median cytotoxicity concentration (CC50): 1.915 ± 0.09 µg/mL
[9]; PBMC infected with AZT-resistant HIV-1 018c
  Median cytotoxicity concentration (CC50): 5.55 ± 0.136 µg/mL
[9]; PBMC infected with AZT-sensitive HIV-1 018a
  Median cytotoxicity concentration (CC50): 5.66 ± 0.28 µg/mL
